According to patent publication US7799794B2, “Treatment for cardiovascular disease” (Merck Sharp & Dohme Corp., priority 2000, dated 2010):
Read-outs that look alike come from different tables or passages of the source.

What was measured:
[1] = cited from earlier work
[2] = cited from earlier work; remark: listed apart in the source
[3] = test system: Sprague-Dawley rats; test: Enalapril or L-Arginine in hyperuricemic rats on low salt diet: blood pressure (Example 4); assay type: in vivo, rat; details: for systolic blood pressure lower than the hyperuricemic controls: at 7 weeks, enalapril 1 mg/kg/d or L-Arginine 1% in drinking water, p<0.05; for effect on systolic blood pressure of hyperuricemic rats: treatment from the outset, 7 weeks
Procedure: Rats were placed on either low salt diet, low salt diet with 2% oxonic acid, low salt diet with oxonic acid and enalapril (1 mg/kg/d in drinking water), or low salt diet with oxonic acid and L-Arginine (1% in drinking water).
(§1) Am J Physiol 268:F1 164-76, 1995].

[4] = test system: Sprague-Dawley rats; test: Oxonic acid on low sodium diet with or without allopurinol: blood pressure, uric acid (Example 2); assay type: in vivo, rat; details: allopurinol from the initiation of the oxonic acid diet, low salt
Procedure: All studies utilized adult male Sprague-Dawley rats (Simonsen Laboratories, Gilroy Calif.)(200-250 g).
(§2) Rats were placed on a low sodium diet (NaCl, 0.125%) with or without 2% oxonic acid for 7 weeks. A third group were administered allopurinol in the drinking water (150 mg/L) with weekly adjustments of the dose depending on the uric acid level.
Am J Physiol 268:F1164-76, 1995].
(§3) Am J Clin Pathol 1957; 28:152.]. Serum blood urea nitrogen was measured by a standard kit (Sigma, St Louis, Mo.).

[5] = test system: Sprague-Dawley rats; test: Renal findings at 7 weeks: immunohistochemistry and BUN (Example 2); assay type: in vivo, rat; details: low NaCl diet
Procedure: as §2, §3
(§4) Renal biopsies were fixed in Methyl-Carnoy's, 10% formalin or 100% ethanol and embedded in paraffin. The presence of uric acid crystals was evaluated by staining 4-μm ethanol-fixed sections with de Galantha and modified Von Kossa stains. Kidney tissue from rats with acute uric acid nephropathy, induced with oxonic acid and uric acid administration was used as a positive control [Stavric, B., Johnson, W. J., and Grice, H. C., Uric acid nephropathy: An experimental model, Proc. Soc. Exp. Biol. Med. 130: 512-16 (1969).]. Light microscopy was performed in 4-μm sections of Methyl-Carnoy's fixed tissue stained with periodic acid Schiff (PAS) reagent or with hematoxylin and eosin.
(§5) Methyl-Carnoy's fixed tissue sections were analyzed by indirect immunoperoxidase [Lombardi, D., Gordon , K. L., Polinsky, P., Suga, S., Schwartz, S. M., and Johnson, R. J. Salt sensitive hypertension develops after transient exposure to angiotensin II. Hypertension 33:1013-1019, 1999] staining with the following primary antibodies: OP199, a goat polyclonal antibody against osteopontin (OPN)(gift of C. Giachelli, Univ of Wash., Seattle); ED-1, a monoclonal antibody to rat monocytes and macrophages (Serotec); goat antihuman type III collagen (Southern Biotechnology Associates Inc, Birminghan Ala.); and anti-renin, a mouse antibody to human renin (Sanofi Recherche, Montpellier, France). Sections were incubated with a secondary antibody followed by horseradish peroxidase-conjugated avidin D (Vector Laboratories, Burlingame, Calif.), diaminobenzidine (Sigma) with or without nickel chloride as a chromogen, and counsterstained with methyl green.
(§6) NOS1 was detected on formalin fixed tissue sections with a rabbit anti-rat neuronal nitric oxide synthase (Transduction Laboratories, Lexington, Ky.), followed by a biotinylated secondary antibody, diaminobenzidine with nickel chloride and counterstained with nuclear fast red.
(§7) All quantification was performed blinded. The tubular expression of osteopontin (OPN), which is a sensitive marker of tubulointerstitial injury, was calculated as the percent of renal cortex occupied by OPN-positive tubules [Lombardi, D., Gordon, K. L., Polinsky, P., Suga, S., Schwartz, S. M., and Johnson, R. J. Salt sensitive hypertension develops after transient exposure to angiotensin II. Hypertension 33:1013-1019, 1999]. Utilizing computer-assisted image analysis software (Optimas V6.2, Media Cybernetics, Silver Springs, Md.) and digitized images, the percent of area occupied by OPN positive tubules per 4 mm^2 field at a magnification of 50× was measured and the mean percent area calculated for each biopsy. The interstitial deposition of collagen type III was calculated as the % of renal cortex occupied by collagen III, noted by immunostaining, by computer image analysis. The mean number of interstitial macrophages (ED-1+cells) in each biopsy was calculated in a blinded manner by counting the total number of positive interstitial cortical cells in 20 sequentially selected 0.25 mm^2 grids at 200× magnification. Renin expression was quantified by the number of glomeruli with positive staining for juxtaglomerular renin using a minimum of 100 glomeruli in each biopsy as previously described [Eng, E., et al., Renal proliferation and phenotypic changes in rats with two-kidney, one-clip Goldblatt hypertension. Am J Hypertens 7:177-185 (1994)]; this has been shown previously to correlate with intrarenal renin content[Eng, E., et al., Renal proliferation and phenotypic changes in rats with two-kidney, one-clip Goldblatt hypertension. Am J Hypertens 7:177-185 (1994)]. […]

[6] = test system: Sprague-Dawley rats; test: Allopurinol intervention or oxonic acid withdrawal in hyperuricemic rats: blood pressure (Example 3); assay type: in vivo, rat; details: allopurinol added at 7 weeks, OA/LSD continued
Description: (§8) Rats were placed on the low sodium diet with oxonic acid for 7 weeks, and then were matched based on uric acid level and blood pressure in various groups to either receive allopurinol, have the oxonic acid withdrawn from the diet, or continue the oxonic acid/low salt diet. A control group of six rats were placed on the lowsodium diet alone for 11 weeks. All of these rats were sacrificed at week 11.
as §1, §3

[7] = test system: Sprague-Dawley rats; test: Renal findings at 11 weeks: immunohistochemistry and BUN (Example 3); assay type: in vivo, rat; details: low NaCl diet, allopurinol added at 7 weeks
Procedure: as §8, §3, §4, §5, §6
as §7, with “hypertension.” for “hypertension. Am J Hypertens 7:177-185 (1994)]; this has been shown previously to correlate with intrarenal renin content[Eng, E., et al., Renal proliferation and phenotypic changes in rats with two-kidney, one-clip Goldblatt hypertension. Am J Hypertens 7:177-185 (1994)].”

CCCCc1nc(Cl)c(CO)n1Cc1ccc(-c2ccccc2-c2nn[nH]n2)cc1 [Compound No. 9, losartan potassium]
Concentration of Uric Acid in serum ([1]; 25 mg/man oral, in hunger, 0 hr (when administered)): 5.2 ± 0.5 mg/dL
Concentration of Uric Acid in serum ([1]; 25 mg/man oral, in hunger, 4 hr): 4.8 ± 0.6 mg/dL
Concentration of Uric Acid in serum ([1]; 25 mg/man oral, in hunger, 24 hr): 4.6 ± 0.6 mg/dL
Concentration of Uric Acid in serum ([1]; 50 mg/man oral, in hunger, 0 hr (when administered)): 6.1 ± 1.4 mg/dL
Concentration of Uric Acid in serum ([1]; 50 mg/man oral, in hunger, 4 hr): 5.3 ± 1.3 mg/dL
Concentration of Uric Acid in serum ([1]; 50 mg/man oral, in hunger, 24 hr): 5.6 ± 1.4 mg/dL
Concentration of Uric Acid in serum ([1]; 100 mg/man oral, after meal, 4 hr): 4.9 ± 1.0 mg/h
Concentration of Uric Acid in serum ([1]; 100 mg/man oral, in hunger, 0 hr (when administered)): 5.9 ± 0.9 mg/dL
Concentration of Uric Acid in serum ([1]; 100 mg/man oral, in hunger, 4 hr): 4.6 ± 0.7 mg/dL
Concentration of Uric Acid in serum ([1]; 100 mg/man oral, in hunger, 24 hr): 5.2 ± 0.8 mg/dL
Concentration of Uric Acid in serum ([1]; 200 mg/man oral, in hunger, 0 hr (when administered)): 5.6 ± 0.7 mg/dL
Concentration of Uric Acid in serum ([1]; 200 mg/man oral, in hunger, 4 hr): 4.3 ± 0.9 mg/dL
Concentration of Uric Acid in serum ([1]; 200 mg/man oral, in hunger, 24 hr): 5.0 ± 0.9 mg/dL
uric acid excretion in urine (Concentration of Uric Acid) ([2]; 25 mg/man oral, in hunger, 4-8 hr): 32.4 ± 14.7 mg/h
uric acid excretion in urine (Concentration of Uric Acid) ([2]; 25 mg/man oral, in hunger, 8-12 hr): 28.7 ± 13.6 mg/h
uric acid excretion in urine (Concentration of Uric Acid) ([2]; 25 mg/man oral, in hunger, 12-24 hr): 19.7 ± 9.9 mg/h
uric acid excretion in urine (Concentration of Uric Acid) ([2]; 25 mg/man oral, in hunger, 24-40 hr): 33.2 ± 21.9 mg/h
uric acid excretion in urine (Concentration of Uric Acid) ([2]; 50 mg/man oral, in hunger, 0-4 hr): 52.8 ± 4.3 mg/h
uric acid excretion in urine (Concentration of Uric Acid) ([2]; 50 mg/man oral, in hunger, 8-12 hr): 39.1 ± 4.4 mg/h
uric acid excretion in urine (Concentration of Uric Acid) ([2]; 50 mg/man oral, in hunger, 12-24 hr): 22.2 ± 3.8 mg/h
uric acid excretion in urine (Concentration of Uric Acid) ([2]; 50 mg/man oral, in hunger, 24-40 hr): 26.6 ± 5.4 mg/h
uric acid excretion in urine (Concentration of Uric Acid) ([2]; 100 mg/man oral, after meal, 0-4 hr): 75.9 ± 19.0 mg/h
uric acid excretion in urine (Concentration of Uric Acid) ([2]; 100 mg/man oral, after meal, 4-8 hr): 59.0 ± 3.8 mg/h
uric acid excretion in urine (Concentration of Uric Acid) ([2]; 100 mg/man oral, after meal, 8-12 hr): 31.8 ± 4.5 mg/h
uric acid excretion in urine (Concentration of Uric Acid) ([2]; 100 mg/man oral, after meal, 12-24 hr): 19.7 ± 2.5 mg/h
uric acid excretion in urine (Concentration of Uric Acid) ([2]; 100 mg/man oral, after meal, 24-40 hr): 29.5 ± 4.1 mg/h
uric acid excretion in urine (Concentration of Uric Acid) ([2]; 100 mg/man oral, in hunger, 0-4 hr): 81.2 ± 15.7 mg/h
uric acid excretion in urine (Concentration of Uric Acid) ([2]; 100 mg/man oral, in hunger, 4-8 hr): 36.4 ± 7.7 mg/h
uric acid excretion in urine (Concentration of Uric Acid) ([2]; 100 mg/man oral, in hunger, 8-12 hr): 30.1 ± 6.8 mg/h
uric acid excretion in urine (Concentration of Uric Acid) ([2]; 100 mg/man oral, in hunger, 12-24 hr): 19.2 ± 4.2 mg/h
uric acid excretion in urine (Concentration of Uric Acid) ([2]; 100 mg/man oral, in hunger, 24-40 hr): 28.0 ± 7.2 mg/h
uric acid excretion in urine (Concentration of Uric Acid) ([2]; 200 mg/man oral, in hunger, 0-4 hr): 78.7 ± 15.3 mg/h
uric acid excretion in urine (Concentration of Uric Acid) ([2]; 200 mg/man oral, in hunger, 4-8 hr): 25.4 ± 6.6 mg/h
uric acid excretion in urine (Concentration of Uric Acid) ([2]; 200 mg/man oral, in hunger, 8-12 hr): 19.6 ± 5.2 mg/h
uric acid excretion in urine (Concentration of Uric Acid) ([2]; 200 mg/man oral, in hunger, 12-24 hr): 13.4 ± 2.3 mg/h
uric acid excretion in urine (Concentration of Uric Acid) ([2]; 200 mg/man oral, in hunger, 24-40 hr): 21.0 ± 3.0 mg/h

CCOC(=O)[C@H](CCc1ccccc1)N[C@@H](C)C(=O)N1CCC[C@H]1C(=O)O [enalapril]
systolic blood pressure lower than the hyperuricemic controls [3]: 25 mm Hg
effect on systolic blood pressure of hyperuricemic rats [3]: lowest systolic blood pressures

N=C(N)NCCC[C@H](N)C(=O)O [L-Arginine]
systolic blood pressure lower than the hyperuricemic controls [3]: 25 mm Hg
effect on systolic blood pressure of hyperuricemic rats [3]: largely prevented this increase

Oc1ncnc2[nH]ncc12 [Allopurinol, allopurinol]
development of hyperuricemia and hypertension [4]: prevented
Renin ([5]; control 39.6 ± 2.0): 44.1 ± 1.6 % positive JGA
NOS-1 ([5]; control 147.2 ± 12.4): 97.4 ± 5.6 positive cells/100 glomeruli
OPN ([5]; mean±SE, control 0.9 ± 0.06): 1.3 ± 0.15 % increase
Type III collagen ([5]; mean±SE, control 5.4 ± 0.3): 6.2 ± 0.6%
BUN ([5]; mean±SE, control 14.4 ± 1.2): 15.2 ± 2.3 mg/dL
ED-1 (macrophages) ([5]; mean±SE, control 18.3 ± 1.3): 20.5 ± 0.6 cells/mm2
blood pressure and serum uric acid in hypertensive, hyperuricemic rats [6]: reduction in the blood pressure in association with a fall in serum uric acid values
OPN ([7]; control 0.7 ± 0.08): 0.97 ± 0.03 % increase
Type III collagen ([7]; control 7.2 ± 0.6): 9.6 ± 0.3 %
BUN ([7]; control 16.6 ± 0.9): 17.7 ± 0.5 mg/dL
ED-1 (macrophages) ([7]; control 27.8 ± 1.4): 25.2 ± 2.6 cells/mm2
Renin ([7]; control 41.0 ± 1.9): 44.2 ± 1.3 % positive JGA
NOS-1 ([7]; control 104.4 ± 11.5): 98.6 ± 5.1 positive cells/100 glomeruli
